Test results as given in ChEMBL document CHEMBL5291721, “A preclinical secondary pharmacology resource illuminates target-adverse drug reaction associations of marketed drugs” (Nat Commun, 2023).

What was measured:
[1] = target: T1, Alpha-2A adrenergic receptor (Homo sapiens, UniProt P08913); assay type: functional, cell-based
T1 sequence (P08913 whole entry): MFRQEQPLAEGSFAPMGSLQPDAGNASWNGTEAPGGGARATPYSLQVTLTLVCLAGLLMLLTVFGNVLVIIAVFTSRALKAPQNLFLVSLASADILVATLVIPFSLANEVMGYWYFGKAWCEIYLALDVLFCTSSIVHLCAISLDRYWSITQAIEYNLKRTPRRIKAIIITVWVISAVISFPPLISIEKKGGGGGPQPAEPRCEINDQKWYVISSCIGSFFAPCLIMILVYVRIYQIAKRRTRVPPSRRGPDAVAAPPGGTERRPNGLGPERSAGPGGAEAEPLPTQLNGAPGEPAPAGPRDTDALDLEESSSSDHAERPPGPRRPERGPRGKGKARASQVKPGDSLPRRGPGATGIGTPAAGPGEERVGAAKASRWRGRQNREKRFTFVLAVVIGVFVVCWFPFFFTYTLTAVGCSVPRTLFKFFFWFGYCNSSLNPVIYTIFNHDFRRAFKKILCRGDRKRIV

[2] = target: Histamine H2 receptor (Homo sapiens, UniProt P25021); assay type: functional, cell-based
Sequence of Histamine H2 receptor (P25021 whole entry): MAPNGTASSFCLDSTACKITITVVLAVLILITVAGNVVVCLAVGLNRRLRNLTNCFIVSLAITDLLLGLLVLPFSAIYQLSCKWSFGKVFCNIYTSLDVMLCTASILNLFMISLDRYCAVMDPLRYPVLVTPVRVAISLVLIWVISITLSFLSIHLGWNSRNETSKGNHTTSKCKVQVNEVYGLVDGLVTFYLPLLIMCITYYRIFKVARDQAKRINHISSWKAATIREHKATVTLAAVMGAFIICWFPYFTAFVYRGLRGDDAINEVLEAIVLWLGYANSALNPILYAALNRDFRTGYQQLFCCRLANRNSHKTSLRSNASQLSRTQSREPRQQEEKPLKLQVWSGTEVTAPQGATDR

[3] = target: 5-hydroxytryptamine receptor 2A (Homo sapiens, UniProt P28223); assay type: functional, cell-based
Sequence of 5-hydroxytryptamine receptor 2A (P28223 whole entry): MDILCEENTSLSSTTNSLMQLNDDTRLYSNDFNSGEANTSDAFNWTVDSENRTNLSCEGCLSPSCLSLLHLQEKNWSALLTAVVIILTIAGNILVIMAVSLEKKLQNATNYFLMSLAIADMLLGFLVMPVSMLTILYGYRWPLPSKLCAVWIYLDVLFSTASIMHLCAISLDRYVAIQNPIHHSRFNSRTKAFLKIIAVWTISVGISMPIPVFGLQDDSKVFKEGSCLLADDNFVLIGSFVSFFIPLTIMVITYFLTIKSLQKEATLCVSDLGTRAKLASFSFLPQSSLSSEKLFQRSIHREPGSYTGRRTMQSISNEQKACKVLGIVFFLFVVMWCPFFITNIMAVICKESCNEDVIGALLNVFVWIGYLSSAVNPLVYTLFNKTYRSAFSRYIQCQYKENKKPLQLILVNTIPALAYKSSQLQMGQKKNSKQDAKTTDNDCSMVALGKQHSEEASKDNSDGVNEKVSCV

[4] = target: 5-hydroxytryptamine receptor 2B (Homo sapiens, UniProt P41595); assay type: functional, cell-based
Sequence of 5-hydroxytryptamine receptor 2B (P41595 whole entry): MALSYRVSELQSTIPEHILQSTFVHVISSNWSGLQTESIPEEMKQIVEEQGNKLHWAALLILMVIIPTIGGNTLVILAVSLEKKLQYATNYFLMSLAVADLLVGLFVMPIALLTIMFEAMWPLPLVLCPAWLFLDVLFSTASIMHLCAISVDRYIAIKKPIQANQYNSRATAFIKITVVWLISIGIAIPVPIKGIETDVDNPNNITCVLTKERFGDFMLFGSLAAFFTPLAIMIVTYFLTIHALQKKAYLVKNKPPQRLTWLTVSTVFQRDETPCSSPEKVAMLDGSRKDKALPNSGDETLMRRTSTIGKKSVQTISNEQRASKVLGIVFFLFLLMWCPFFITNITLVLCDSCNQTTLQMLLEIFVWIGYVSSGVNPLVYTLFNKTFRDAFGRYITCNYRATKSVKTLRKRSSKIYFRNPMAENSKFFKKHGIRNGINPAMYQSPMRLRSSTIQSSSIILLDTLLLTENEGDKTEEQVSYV

[5] = target: Melanocortin receptor 3 (Homo sapiens, UniProt P41968)
Sequence of Melanocortin receptor 3 (P41968 whole entry): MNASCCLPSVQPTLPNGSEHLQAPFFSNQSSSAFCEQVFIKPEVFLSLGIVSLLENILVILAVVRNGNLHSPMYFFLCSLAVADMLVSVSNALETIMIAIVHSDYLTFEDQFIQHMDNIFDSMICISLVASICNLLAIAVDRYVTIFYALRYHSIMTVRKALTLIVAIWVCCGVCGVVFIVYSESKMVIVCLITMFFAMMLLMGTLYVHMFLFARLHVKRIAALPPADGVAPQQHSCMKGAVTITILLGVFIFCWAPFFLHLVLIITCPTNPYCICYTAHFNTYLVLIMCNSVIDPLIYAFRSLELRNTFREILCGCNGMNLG

[6] = target: Voltage-dependent L-type calcium channel subunit alpha-1C (Rattus norvegicus, UniProt P22002); assay type: functional
Sequence of Voltage-dependent L-type calcium channel subunit alpha-1C (P22002 whole entry): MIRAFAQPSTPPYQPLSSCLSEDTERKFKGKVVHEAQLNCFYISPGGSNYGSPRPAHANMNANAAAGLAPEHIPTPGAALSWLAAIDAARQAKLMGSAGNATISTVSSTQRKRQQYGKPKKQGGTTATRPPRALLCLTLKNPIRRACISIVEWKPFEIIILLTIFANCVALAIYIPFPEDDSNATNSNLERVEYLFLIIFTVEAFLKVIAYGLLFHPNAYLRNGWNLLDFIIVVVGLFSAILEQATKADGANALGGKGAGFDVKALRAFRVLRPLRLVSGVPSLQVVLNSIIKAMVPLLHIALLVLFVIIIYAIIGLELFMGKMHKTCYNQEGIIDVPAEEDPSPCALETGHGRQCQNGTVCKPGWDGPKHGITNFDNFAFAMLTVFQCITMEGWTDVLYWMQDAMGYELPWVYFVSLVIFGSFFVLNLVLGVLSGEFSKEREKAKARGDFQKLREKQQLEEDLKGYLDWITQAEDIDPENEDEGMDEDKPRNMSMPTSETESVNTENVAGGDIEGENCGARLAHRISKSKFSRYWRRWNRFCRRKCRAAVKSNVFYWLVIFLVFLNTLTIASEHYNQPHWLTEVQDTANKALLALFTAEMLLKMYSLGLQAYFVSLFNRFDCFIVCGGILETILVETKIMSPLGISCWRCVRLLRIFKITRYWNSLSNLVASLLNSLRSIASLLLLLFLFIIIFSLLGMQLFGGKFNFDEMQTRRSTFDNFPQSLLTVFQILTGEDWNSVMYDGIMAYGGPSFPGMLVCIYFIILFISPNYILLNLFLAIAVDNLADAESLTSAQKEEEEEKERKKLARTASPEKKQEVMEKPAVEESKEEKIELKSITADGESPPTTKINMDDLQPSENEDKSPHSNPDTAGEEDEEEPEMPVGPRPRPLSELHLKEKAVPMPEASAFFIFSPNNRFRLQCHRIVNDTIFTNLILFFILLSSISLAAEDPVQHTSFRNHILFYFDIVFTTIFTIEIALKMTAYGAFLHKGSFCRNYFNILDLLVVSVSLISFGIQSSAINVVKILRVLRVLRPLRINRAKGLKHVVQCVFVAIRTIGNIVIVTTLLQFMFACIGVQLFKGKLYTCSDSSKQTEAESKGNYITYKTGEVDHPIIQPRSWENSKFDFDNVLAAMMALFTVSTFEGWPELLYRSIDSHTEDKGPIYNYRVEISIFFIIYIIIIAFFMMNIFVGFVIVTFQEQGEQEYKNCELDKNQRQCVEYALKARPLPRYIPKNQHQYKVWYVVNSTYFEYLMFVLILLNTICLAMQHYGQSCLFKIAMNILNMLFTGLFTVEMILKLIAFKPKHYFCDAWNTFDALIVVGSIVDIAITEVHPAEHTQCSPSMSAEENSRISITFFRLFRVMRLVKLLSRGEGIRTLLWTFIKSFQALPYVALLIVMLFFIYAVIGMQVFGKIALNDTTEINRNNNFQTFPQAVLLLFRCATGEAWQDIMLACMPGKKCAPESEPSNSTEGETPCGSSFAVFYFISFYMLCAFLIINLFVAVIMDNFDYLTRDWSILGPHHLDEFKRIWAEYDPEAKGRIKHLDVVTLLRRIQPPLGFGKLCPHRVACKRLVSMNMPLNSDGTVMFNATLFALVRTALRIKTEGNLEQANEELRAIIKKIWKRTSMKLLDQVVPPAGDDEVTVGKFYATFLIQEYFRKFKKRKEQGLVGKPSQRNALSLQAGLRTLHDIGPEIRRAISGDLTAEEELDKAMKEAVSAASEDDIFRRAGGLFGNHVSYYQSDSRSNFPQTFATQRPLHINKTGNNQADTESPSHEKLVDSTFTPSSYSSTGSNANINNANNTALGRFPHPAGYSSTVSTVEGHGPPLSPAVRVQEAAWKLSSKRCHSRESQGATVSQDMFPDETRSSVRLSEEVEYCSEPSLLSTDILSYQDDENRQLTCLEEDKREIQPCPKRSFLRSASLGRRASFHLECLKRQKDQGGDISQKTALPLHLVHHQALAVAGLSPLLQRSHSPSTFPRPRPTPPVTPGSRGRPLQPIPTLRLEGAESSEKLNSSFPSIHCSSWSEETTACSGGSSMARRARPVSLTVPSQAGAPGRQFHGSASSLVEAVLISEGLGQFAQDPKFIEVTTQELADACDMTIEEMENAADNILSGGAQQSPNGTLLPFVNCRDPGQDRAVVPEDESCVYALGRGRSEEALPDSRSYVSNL

[7] = target: T2, 5-hydroxytryptamine receptor 3A (Homo sapiens, UniProt P46098); assay type: functional
T2 sequence (P46098 whole entry): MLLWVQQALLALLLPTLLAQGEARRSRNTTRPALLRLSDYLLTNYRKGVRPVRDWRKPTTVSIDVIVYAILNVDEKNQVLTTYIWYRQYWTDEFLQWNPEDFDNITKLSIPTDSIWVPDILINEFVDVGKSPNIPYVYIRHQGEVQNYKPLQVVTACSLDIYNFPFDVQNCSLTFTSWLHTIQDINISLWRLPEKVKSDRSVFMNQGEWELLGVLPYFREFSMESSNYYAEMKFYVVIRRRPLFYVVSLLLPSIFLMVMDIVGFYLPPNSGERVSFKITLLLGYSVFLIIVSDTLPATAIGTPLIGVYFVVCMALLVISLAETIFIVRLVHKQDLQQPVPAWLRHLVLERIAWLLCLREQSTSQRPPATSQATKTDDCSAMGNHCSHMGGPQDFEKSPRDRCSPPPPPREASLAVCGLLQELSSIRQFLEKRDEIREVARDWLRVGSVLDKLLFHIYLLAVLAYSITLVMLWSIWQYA

[8] = target: Cannabinoid receptor 1 (Homo sapiens, UniProt P21554); assay type: functional, cell-based
Sequence of Cannabinoid receptor 1 (P21554 whole entry): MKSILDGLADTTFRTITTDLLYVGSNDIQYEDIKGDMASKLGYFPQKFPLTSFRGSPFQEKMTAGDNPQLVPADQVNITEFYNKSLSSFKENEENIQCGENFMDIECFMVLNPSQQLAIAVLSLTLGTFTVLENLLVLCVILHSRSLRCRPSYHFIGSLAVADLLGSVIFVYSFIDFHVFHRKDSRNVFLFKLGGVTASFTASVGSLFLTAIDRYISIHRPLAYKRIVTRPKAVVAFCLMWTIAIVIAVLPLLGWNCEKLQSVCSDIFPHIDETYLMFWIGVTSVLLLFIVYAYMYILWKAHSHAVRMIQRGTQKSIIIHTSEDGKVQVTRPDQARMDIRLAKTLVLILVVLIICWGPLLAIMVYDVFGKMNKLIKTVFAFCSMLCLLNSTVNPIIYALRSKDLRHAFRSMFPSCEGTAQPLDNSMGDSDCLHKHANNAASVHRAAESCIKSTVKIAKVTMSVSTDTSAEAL

[9] = target: T3, B2 bradykinin receptor (Homo sapiens, UniProt P30411)
T3 sequence (P30411 whole entry): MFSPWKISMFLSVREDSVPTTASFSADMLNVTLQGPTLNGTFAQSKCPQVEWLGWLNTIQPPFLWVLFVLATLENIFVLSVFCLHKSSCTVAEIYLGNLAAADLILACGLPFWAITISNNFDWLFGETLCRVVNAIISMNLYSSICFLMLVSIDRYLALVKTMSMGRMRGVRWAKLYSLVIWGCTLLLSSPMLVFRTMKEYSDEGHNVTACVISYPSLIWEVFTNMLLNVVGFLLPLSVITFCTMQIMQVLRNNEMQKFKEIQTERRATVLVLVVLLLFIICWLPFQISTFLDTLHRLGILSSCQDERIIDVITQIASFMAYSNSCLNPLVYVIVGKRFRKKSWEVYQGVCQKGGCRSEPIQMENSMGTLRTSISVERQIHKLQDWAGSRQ

[10] = target: Histamine H3 receptor (Homo sapiens, UniProt Q9Y5N1)
[11] = target: T4, Amine oxidase [flavin-containing] A (Homo sapiens, UniProt P21397); assay type: functional
T4 sequence (P21397 whole entry): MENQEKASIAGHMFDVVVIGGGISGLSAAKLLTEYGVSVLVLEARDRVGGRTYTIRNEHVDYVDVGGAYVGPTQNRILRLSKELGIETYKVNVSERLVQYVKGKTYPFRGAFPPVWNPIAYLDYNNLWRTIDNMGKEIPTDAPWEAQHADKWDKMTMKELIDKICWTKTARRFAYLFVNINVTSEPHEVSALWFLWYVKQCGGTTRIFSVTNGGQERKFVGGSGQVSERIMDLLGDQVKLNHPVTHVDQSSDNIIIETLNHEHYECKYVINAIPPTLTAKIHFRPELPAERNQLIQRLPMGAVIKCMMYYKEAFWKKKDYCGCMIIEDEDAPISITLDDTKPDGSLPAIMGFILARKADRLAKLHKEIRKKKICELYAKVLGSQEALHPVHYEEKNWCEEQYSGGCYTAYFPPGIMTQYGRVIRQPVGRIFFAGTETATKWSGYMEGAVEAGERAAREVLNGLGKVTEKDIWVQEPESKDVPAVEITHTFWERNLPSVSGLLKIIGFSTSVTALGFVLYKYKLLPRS

[12] = target: Vasopressin V1a receptor (Homo sapiens, UniProt P37288)
Sequence of Vasopressin V1a receptor (P37288 whole entry): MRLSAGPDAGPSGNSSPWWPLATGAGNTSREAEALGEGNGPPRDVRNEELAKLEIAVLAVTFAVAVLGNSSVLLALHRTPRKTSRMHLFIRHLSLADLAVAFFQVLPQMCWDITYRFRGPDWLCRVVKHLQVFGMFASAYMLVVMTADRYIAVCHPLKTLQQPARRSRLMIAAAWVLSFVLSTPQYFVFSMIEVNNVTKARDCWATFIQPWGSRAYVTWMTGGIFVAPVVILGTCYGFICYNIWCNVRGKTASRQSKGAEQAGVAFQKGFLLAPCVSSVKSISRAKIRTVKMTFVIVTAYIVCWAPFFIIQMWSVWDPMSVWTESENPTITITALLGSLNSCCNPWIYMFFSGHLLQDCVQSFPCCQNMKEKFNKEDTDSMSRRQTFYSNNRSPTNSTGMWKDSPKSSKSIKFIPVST

[13] = target: T5, Muscarinic acetylcholine receptor M2 (Homo sapiens, UniProt P08172); assay type: functional, cell-based
T5 sequence (P08172 whole entry): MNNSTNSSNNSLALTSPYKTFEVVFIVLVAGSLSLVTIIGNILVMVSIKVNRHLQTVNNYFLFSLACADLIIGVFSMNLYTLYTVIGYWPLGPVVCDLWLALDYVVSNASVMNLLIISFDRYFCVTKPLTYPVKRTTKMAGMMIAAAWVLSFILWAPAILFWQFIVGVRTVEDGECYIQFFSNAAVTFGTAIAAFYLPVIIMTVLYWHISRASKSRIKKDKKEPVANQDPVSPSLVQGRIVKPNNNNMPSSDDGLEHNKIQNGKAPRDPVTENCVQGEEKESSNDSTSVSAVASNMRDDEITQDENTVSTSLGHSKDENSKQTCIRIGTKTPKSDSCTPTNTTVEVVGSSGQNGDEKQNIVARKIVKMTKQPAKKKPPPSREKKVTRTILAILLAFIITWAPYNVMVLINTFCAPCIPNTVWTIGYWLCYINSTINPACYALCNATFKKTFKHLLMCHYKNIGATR

[14] = target: T1, Alpha-2A adrenergic receptor; assay type: functional, cell-based; remark: listed apart in the source
Also: assay procedure not described here.

C[C@]12CCC(=O)C=C1C=C[C@@H]1[C@@H]2CC[C@@]2(C)[C@H]1CC[C@@]21CCC(=O)O1 [CANRENONE]
AC50 [1]: > 30 µM
AC50 [2]: > 30 µM
AC50 [3]: > 30 µM
AC50 [4]: > 30 µM
AC50 [5]: > 30 µM
AC50 [6]: > 30 µM
AC50 [7]: > 30 µM
AC50 [8]: > 30 µM
AC50 [9]: > 30 µM
AC50 [10]: > 30 µM
AC50 [11]: > 30 µM
AC50 [12]: > 30 µM
AC50 [13]: 20 µM
AC50 [14]: > 30 µM

CN(C)CCC(O)(c1ccccc1)c1ccccc1Cl (configuration not stated) [CHLOPHEDIANOL]
AC50 [1]: > 10 µM
AC50 [2]: > 10 µM
AC50 [3]: > 10 µM
AC50 [4]: > 10 µM
AC50 [5]: > 10 µM
AC50 [6]: > 10 µM
AC50 [7]: > 30 µM
AC50 [8]: > 30 µM
AC50 [9]: > 10 µM
AC50 [10]: > 10 µM
AC50 [11]: > 10 µM
AC50 [12]: > 10 µM
AC50 [13]: > 10 µM
AC50 [14]: > 10 µM

CN(C)[C@@H]1C(O)=C(C(=O)NCN2CCCC2)C(=O)[C@@]2(O)C(O)=C3C(=O)c4c(O)cccc4[C@@](C)(O)[C@H]3C[C@@H]12 [ROLITETRACYCLINE]
AC50 [1]: > 10 µM
AC50 [2]: > 10 µM
AC50 [3]: > 30 µM
AC50 [4]: > 10 µM
AC50 [5]: > 10 µM
AC50 [6]: > 10 µM
AC50 [7]: > 30 µM
AC50 [8]: > 30 µM
AC50 [9]: > 10 µM
AC50 [10]: > 10 µM
AC50 [11]: > 10 µM
AC50 [12]: > 10 µM
AC50 [13]: > 10 µM
AC50 [14]: > 10 µM
